Experimental data reported in ChEMBL document CHEMBL5034010, “Novel Cephalosporin Conjugates Display Potent and Selective Inhibition of Imipenemase-Type Metallo-β-Lactamases” (J Med Chem, 2021).
Values after ≈ are worked out from the molar mass of the structure shown. Active and inactive are the calls of the source. No cut-off for these calls is given here.

Columns and labels:
Enterobacter cloacae [1] = test: Inhibition of Metallo-beta-lactamase IMP-1 in Enterobacter cloacae clinical isolate assessed as MIC for meropenem antibacterial activity at 64 ug/ml (Rvb =16 ug/ml); conditions: dose 64.0 µg/ml
Escherichia coli [2] = test: Inhibition of Metallo-beta-lactamase NDM-1 in Escherichia coli clinical isolate assessed as fold reduction in meropenem MIC at 32 ug/ml; conditions: dose 32.0 µg/ml
Klebsiella pneumoniae [3] = test: Antibacterial activity against beta-lactamase IMP-28 producing Klebsiella pneumoniae clinical isolate measured upto 128 ug/ml; format: functional, organism-based
Klebsiella pneumoniae [4] = test: Inhibition of Metallo-beta-lactamase IMP-28 in Klebsiella pneumoniae clinical isolate assessed as fold reduction in meropenem MIC at 64 ug/ml; conditions: dose 64.0 µg/ml
[5] = Inhibition of Klebsiella pneumoniae beta-lactamase IMP-28 using nitrocefin chromogenic substrate measured after 15 to 60 min at 25 degC by microplate reader
Enterobacter cloacae [6] = test: Inhibition of Metallo-beta-lactamase IMP-1 in Enterobacter cloacae clinical isolate assessed as fold reduction in meropenem MIC at 64 ug/ml; conditions: dose 64.0 µg/ml
Escherichia coli [7] = test: Inhibition of Metallo-beta-lactamase VIM-2 in Escherichia coli clinical isolate assessed as MIC for meropenem antibacterial activity at 128 ug/ml (reference value: 4 ug/ml); conditions: dose 128.0 µg/ml
Klebsiella pneumoniae [8] = test: Substrate activity at Klebsiella pneumoniae beta-lactamase IMP-28 assessed as compound hydrolysis by measuring Kcat/Km by Michaelis-Menten analysis
Enterobacter cloacae [9] = test: Antibacterial activity against beta-lactamase IMP1 producing Enterobacter cloacae clinical isolate measured upto 128 ug/ml; format: functional, organism-based
Escherichia coli [10] = test: Inhibition of Metallo-beta-lactamase VIM-2 in Escherichia coli clinical isolate assessed as fold reduction in meropenem MIC at 128 ug/ml; conditions: dose 128.0 µg/ml
Escherichia coli [11] = test: Inhibition of Metallo-beta-lactamase NDM-1 in Escherichia coli clinical isolate assessed as fold reduction in meropenem MIC at 64 ug/ml; conditions: dose 64.0 µg/ml
Escherichia coli [12] = test: Inhibition of Metallo-beta-lactamase NDM-1 in Escherichia coli clinical isolate assessed as MIC for meropenem antibacterial activity at 64 ug/ml (reference value: 32 ug/ml); conditions: dose 64.0 µg/ml
Klebsiella pneumoniae [13] = test: Substrate activity at Klebsiella pneumoniae beta-lactamase IMP-28 assessed as compound hydrolysis by measuring Km by Michaelis-Menten analysis
Escherichia coli [14] = test: Antibacterial activity against beta-lactamase VIM2 producing Escherichia coli clinical isolate measured upto 128 ug/ml; format: functional, organism-based
Enterobacter cloacae [15] = test: Inhibition of Metallo-beta-lactamase IMP-1 in Enterobacter cloacae clinical isolate assessed as fold reduction in meropenem MIC at 32 ug/ml; conditions: dose 32.0 µg/ml
Klebsiella pneumoniae [16] = test: Inhibition of Metallo-beta-lactamase IMP-28 in Klebsiella pneumoniae clinical isolate assessed as fold reduction in meropenem MIC at 32 ug/ml; conditions: dose 32.0 µg/ml
Enterobacter cloacae [17] = test: Inhibition of Metallo-beta-lactamase IMP-1 in Enterobacter cloacae clinical isolate assessed as MIC for meropenem antibacterial activity at 128 ug/ml (Rvb =16 ug/ml); conditions: dose 128.0 µg/ml
Enterobacter cloacae [18] = test: Inhibition of Metallo-beta-lactamase IMP-1 in Enterobacter cloacae clinical isolate assessed as fold reduction in meropenem MIC at 128 ug/ml; conditions: dose 128.0 µg/ml
Klebsiella pneumoniae [19] = test: Inhibition of Metallo-beta-lactamase IMP-28 in Klebsiella pneumoniae clinical isolate assessed as MIC for meropenem antibacterial activity at 64 ug/ml (reference value: 2 ug/ml); conditions: dose 64.0 µg/ml
Escherichia coli [20] = test: Inhibition of Metallo-beta-lactamase VIM-2 in Escherichia coli clinical isolate assessed as fold reduction in meropenem MIC at 32 ug/ml; conditions: dose 32.0 µg/ml
Escherichia coli [21] = test: Inhibition of Metallo-beta-lactamase NDM-1 in Escherichia coli clinical isolate assessed as MIC for meropenem antibacterial activity at 32 ug/ml (reference value: 32 ug/ml); conditions: dose 32.0 µg/ml
Escherichia coli [22] = test: Inhibition of Metallo-beta-lactamase VIM-2 in Escherichia coli clinical isolate assessed as MIC for meropenem antibacterial activity at 32 ug/ml (reference value: 4 ug/ml); conditions: dose 32.0 µg/ml
[23] = Inhibition of Escherichia coli beta-lactamase VIM-2 using nitrocefin chromogenic substrate measured after 15 to 60 min at 25 degC by microplate reader
Klebsiella pneumoniae [24] = test: Inhibition of Metallo-beta-lactamase IMP-28 in Klebsiella pneumoniae clinical isolate assessed as fold reduction in meropenem MIC at 128 ug/ml; conditions: dose 128.0 µg/ml
Escherichia coli [25] = test: Inhibition of Metallo-beta-lactamase NDM-1 in Escherichia coli clinical isolate assessed as fold reduction in meropenem MIC at 128 ug/ml; conditions: dose 128.0 µg/ml
Escherichia coli [26] = test: Inhibition of Metallo-beta-lactamase NDM-1 in Escherichia coli clinical isolate assessed as MIC for meropenem antibacterial activity at 128 ug/ml (reference value: 32 ug/ml); conditions: dose 128.0 µg/ml
Klebsiella pneumoniae [27] = test: Inhibition of Metallo-beta-lactamase IMP-28 in Klebsiella pneumoniae clinical isolate assessed as MIC for meropenem antibacterial activity at 128 ug/ml (reference value: 2 ug/ml); conditions: dose 128.0 µg/ml
Klebsiella pneumoniae [28] = test: Inhibition of Metallo-beta-lactamase IMP-28 in Klebsiella pneumoniae clinical isolate assessed as MIC for meropenem antibacterial activity at 32 ug/ml (reference value: 2 ug/ml); conditions: dose 32.0 µg/ml
Escherichia coli [29] = test: Inhibition of Metallo-beta-lactamase VIM-2 in Escherichia coli clinical isolate assessed as MIC for meropenem antibacterial activity at 64 ug/ml (reference value: 4 ug/ml); conditions: dose 64.0 µg/ml
Escherichia coli [30] = test: Antibacterial activity against beta-lactamase NDM1 producing Escherichia coli clinical isolate measured upto 128 ug/ml; format: functional, organism-based
Klebsiella pneumoniae [31] = test: Substrate activity at Klebsiella pneumoniae beta-lactamase IMP-28 assessed as compound hydrolysis by measuring Kcat by Michaelis-Menten analysis
Escherichia coli [32] = test: Inhibition of Metallo-beta-lactamase VIM-2 in Escherichia coli clinical isolate assessed as fold reduction in meropenem MIC at 64 ug/ml; conditions: dose 64.0 µg/ml
[33] = Inhibition of Enterobacter cloacae IMP-1 using nitrocefin chromogenic substrate measured after 15 to 60 min at 25 degC by microplate reader
Enterobacter cloacae [34] = test: Inhibition of Metallo-beta-lactamase IMP-1 in Enterobacter cloacae clinical isolate assessed as MIC for meropenem antibacterial activity at 32 ug/ml (Rvb =16 ug/ml); conditions: dose 32.0 µg/ml
[35] = Stability of the compound assessed as Klebsiella pneumoniae beta-lactamase IMP-28-mediated degradation by measuring appearance of vinyl protons release measured after 120 mins by NMR spectra; format: ADME; conditions: 2 h
[36] = Inhibition of Escherichia coli beta-lactamase NDM-1 using nitrocefin chromogenic substrate measured after 15 to 60 min at 25 degC by microplate reader
Escherichia coli [37] = test: Inhibition of Metallo-beta-lactamase VIM-2 in Escherichia coli clinical isolate assessed as MIC for meropenem antibacterial activity at 128 ug/ml (reference value: 8 ug/ml); conditions: dose 128.0 µg/ml
Klebsiella pneumoniae [38] = test: Inhibition of Metallo-beta-lactamase IMP-28 in Klebsiella pneumoniae clinical isolate assessed as MIC for meropenem antibacterial activity at 64 ug/ml (reference value: 4 ug/ml); conditions: dose 64.0 µg/ml
Escherichia coli [39] = test: Inhibition of Metallo-beta-lactamase VIM-2 in Escherichia coli clinical isolate assessed as MIC for meropenem antibacterial activity at 32 ug/ml (reference value: 8 ug/ml); conditions: dose 32.0 µg/ml
Escherichia coli [40] = test: Inhibition of Metallo-beta-lactamase VIM-2 in Escherichia coli clinical isolate assessed as MIC for meropenem antibacterial activity at 64 ug/ml (reference value: 8 ug/ml); conditions: dose 64.0 µg/ml
[41] = Stability of the compound in Muller hinton broth assessed compound remaining measured after 15 hrs by HPLC analysis; format: physicochemical; conditions: Mueller Hinton broth, read-out: Stability
Klebsiella pneumoniae [42] = test: Inhibition of Metallo-beta-lactamase IMP-28 in Klebsiella pneumoniae clinical isolate assessed as MIC for meropenem antibacterial activity at 128 ug/ml (reference value: 4 ug/ml); conditions: dose 128.0 µg/ml
Klebsiella pneumoniae [43] = test: Inhibition of Metallo-beta-lactamase IMP-28 in Klebsiella pneumoniae clinical isolate assessed as MIC for meropenem antibacterial activity at 32 ug/ml (reference value: 4 ug/ml); conditions: dose 32.0 µg/ml

| SMILES | MIC (Enterobacter cloacae [1]) [µg/mL] | fold change (FC) (Escherichia coli [2]) | Activity (Klebsiella pneumoniae [3]) | fold change (FC) (Klebsiella pneumoniae [4]) | IC50 [5] [µM] | fold change (FC) (Enterobacter cloacae [6]) | Activity (Enterobacter cloacae [9]) | fold change (FC) (Escherichia coli [10]) | fold change (FC) (Escherichia coli [11]) | MIC (Escherichia coli [12]) [µg/mL] | Activity (Escherichia coli [14]) | fold change (FC) (Enterobacter cloacae [15]) | fold change (FC) (Klebsiella pneumoniae [16]) | MIC (Enterobacter cloacae [17]) [µg/mL] | fold change (FC) (Enterobacter cloacae [18]) | fold change (FC) (Escherichia coli [20]) | MIC (Escherichia coli [21]) [µg/mL] | IC50 [23] [µM] | fold change (FC) (Klebsiella pneumoniae [24]) | fold change (FC) (Escherichia coli [25]) | also measured |
| --- | --- | --- | --- | --- | --- | --- | --- | --- | --- | --- | --- | --- | --- | --- | --- | --- | --- | --- | --- | --- | --- |
| CC1=C(C(=O)O)N2C(=O)[C@@H](NC(=O)Cc3ccccc3)[C@H]2SC1 | 16 (≈ 48.1 µM) | 2 | inactive | 4 | > 100 | 1 | inactive | 4 | 2 | 16 (≈ 48.1 µM) | inactive | 1 | 2 | 16 (≈ 48.1 µM) | 1 | 2 | 16 (≈ 48.1 µM) | 57 | 8 | 2 | MIC (Escherichia coli [7]): 1 µg/mL (≈ 3.01 µM); kcat/Km (Klebsiella pneumoniae [8]): 59000 M⁻¹ s⁻¹; Km (Klebsiella pneumoniae [13]): 392 µM; MIC (Klebsiella pneumoniae [19]): 0.5 µg/mL (≈ 1.5 µM); MIC (Escherichia coli [22]): 2 µg/mL (≈ 6.02 µM); MIC (Escherichia coli [26]): 16 µg/mL (≈ 48.1 µM); MIC (Klebsiella pneumoniae [27]): 0.25 µg/mL (≈ 0.752 µM); MIC (Klebsiella pneumoniae [28]): 1 µg/mL (≈ 3.01 µM); MIC (Escherichia coli [29]): 2 µg/mL (≈ 6.02 µM); Activity (Escherichia coli [30]): inactive; kcat (Klebsiella pneumoniae [31]): 23.3 s⁻¹; fold change (FC) (Escherichia coli [32]): 2; IC50 [33]: > 100 µM; MIC (Enterobacter cloacae [34]): 16 µg/mL (≈ 48.1 µM) |
| CC(=O)OCC1=C(C(=O)O)N2C(=O)[C@@H](NC(=O)Cc3ccccc3)[C@H]2SC1 [CEFALORAM] | – | – | – | – | – | – | – | – | – | – | – | – | – | – | – | – | – | – | – | – | Stability [35]: Unstable |
| O=C(Cc1ccccc1)N[C@@H]1C(=O)N2C(C(=O)O)=C(CSCC(=O)c3ccccc3)CS[C@H]12 | 8 (≈ 16.6 µM) | 2 | inactive | 8 | 14 | 2 | inactive | 2 | 4 | 8 (≈ 16.6 µM) | inactive | 2 | 4 | 4 (≈ 8.29 µM) | 4 | 1 | 16 (≈ 33.2 µM) | 76 | 16 | 4 | IC50 [36]: 77 µM; MIC (Escherichia coli [37]): 4 µg/mL (≈ 8.29 µM); MIC (Klebsiella pneumoniae [38]): 0.5 µg/mL (≈ 1.04 µM); MIC (Escherichia coli [39]): 8 µg/mL (≈ 16.6 µM); MIC (Escherichia coli [26]): 8 µg/mL (≈ 16.6 µM); Activity (Escherichia coli [30]): inactive; fold change (FC) (Escherichia coli [32]): 2; MIC (Escherichia coli [40]): 4 µg/mL (≈ 8.29 µM); remaining at 15 h [41]: > 95%; IC50 [33]: 3.3 µM; MIC (Enterobacter cloacae [34]): 8 µg/mL (≈ 16.6 µM); MIC (Klebsiella pneumoniae [42]): 0.25 µg/mL (≈ 0.518 µM); MIC (Klebsiella pneumoniae [43]): 1 µg/mL (≈ 2.07 µM) |
